According to the NIST ThermoML archive (doi:10.1021/je201014c):

Settings: 101.33 kPa, Liquid; for viscosity: Capillary tube (Ostwald / Ubbelohde) method; for mass density: Vibrating tube method

CN(C)C=O [dimethylformamide]
Settings	mass density [kg/m3]	viscosity [mPa·s]
283.15 K	958.096	1.016
288.15 K	953.346	0.9545
293.15 K	948.584	0.8985
298.15 K	943.817	0.8455
303.15 K	939.042	0.799
308.15 K	934.255	0.7553
313.15 K	929.458	0.7172
318.15 K	924.65	0.6826
